The structures appear in SMILES notation.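 How tested: cells in 96-well plates exposed to compound for 48 hours at five concentrations. GI50 marks 50% less growth. At the TGI there is no net growth.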 Where only a bound is given, the exact number is not on record here.

Here are results for eight compounds from PubChem BioAssay (NCI).

Experiment in all cases: NCI tumour cell line growth inhibition, 48 h
The subject of assay [1] is HOP-18 NSCLC.
In assay [2] the test system is T-47D breast.
Assay [3] relates to MDA-N.
Assay [4] relates to P388 leukemia.
In assay [5] the test system is SN12K1 renal.
In assay [6] the test system is P388/ADR leukemia.

As for `CCOC(=O)C(=O)Nc1cccc(C)c1C`, in assay [1], the TGI was over 100 µM.
As to `Cc1nc(N(CCO)CCO)c2sc(=S)n(-c3ccccc3)c2n1`, the TGI in assay [1] was over 100 µM.
Regarding `COC(=O)C1=C(O)C(C(=O)OC)[C@@]2(O)[C@@H](C(=O)OC)CC[C@@H]1[C@@H]2C(=O)OC` (some centres undefined), the TGI in assay [2] is over 100 µM.
In the case of `BrC1=CN2C[n+]3cc(Br)c4ccccc4c3N=C2c2ccccc21`, the TGI came to 18.8 µM in assay [2] and 21.4 µM in assay [3].
For the compound `COc1cc(C2S/C(=C/c3ccccc3)C(=O)N2c2ccccc2Cl)cc(OC)c1OC` (centres undefined), the values for the TGI in assay [2] and in assay [3] were 32.1 µM and 84.6 µM, respectively.
In the case of `C/C([O-])=C(/c1nc(-c2ccc([N+](=O)[O-])o2)no1)[n+]1cc(C)ccc1C`, the TGI is over 100 µM in assay [4], 28.6 µM in assay [5], 21.8 µM in assay [1] and over 100 µM in assay [6].
Consider `Cc1ccc(S(=O)(=O)Nc2cc(Sc3ccccc3)c(O)c3ccccc23)cc1`, for which, in assay [2], the GI50 is 2.25 µM and the TGI came out at 5.99 µM.
In turn, `COc1cc(Cc2ccc3c(c2C#N)N(C)c2ccccc2S3)cc(OC)c1OC` had a TGI in assay [1] of over 100 µM.
